In patent publication US5196415A, “5-aminocarbonyl-5H-dibenzo[a.d]cyclohepten-5,10-imines for treatment of epilepsy and cocaine addiction” (The United States of America as represented by the …, priority 1992, dated 1993):

Assays:
[1] = in words; cited from earlier work
[2] = compared to 17% who received a placebo; cited from earlier work
[3] = protection against maximal electroshock induced seizures (corneal electroshock, tonic-extensor component); assay type: in vivo, male CF-1 type mice; settings: Mus musculus, ip, 0.25 h; mice, intraperitoneal, saline carrier, 15 min before electroshock (30 mA, 50 Hz, 0.1 s)
Protocol: (§1) Compound 1 was administered intraperotoneally to male CF-1 type mice (20-25 g) with a saline solution carrier. The dose effect behavior was determined by the administration of six different doses of each compound, treating eight mice at each dose. After a period of fifteen minutes, the mice were subjected to corneal application of electroshock (30 mA at 50 Hz for 0.1 s). The ED50 and the 95% confidence intervals of drug which eliminated the tonic-extensor component of the convulsion in 50% of the animals was calculated by the method of Litchfield and Wilcoxon (J. Pharmacol. Exp. Ther. 1949, 96, 99). Drug induced motor toxicity was examined using the inverted screen test which measures the ability of mice to hold onto a screen which has been turned vertical. Control animals will be able to hold on.

[4] = drug induced motor toxicity, inverted screen test; settings: mouse, in vivo, ip, mice
Protocol: as §1

[5] = tested on: phencyclidine binding sites in the central nervous system; settings: in words; cited from earlier work
[6] = in words; cited from earlier work; remark: listed apart in the source

**Q.** With `NC(=O)N1c2ccccc2C=Cc2ccccc21` [Carbamazepine, 5-carbamyl-5H-dibenzo[b,f]azepine] as the compound, how does the “acute and motor toxicity” value [1] read?
**A.** The value was “low acute and motor toxicity”.

**Q.** What about the anticonvulsant activity [1] of the same compound?
**A.** The anticonvulsant activity was “good activity”.

**Q.** What about the bioavailability [1] of the same compound?
**A.** Its bioavailability is “low bioavailability”.

**Q.** What about the bone marrow suppression [1] of the same compound?
**A.** The bone marrow suppression was “implicated in bone marrow suppression”.

**Q.** What about the toxic overdose reported [1] of the same compound?
**A.** Its toxic overdose reported is “only one case of toxic overdose has been reported”.

**Q.** And the “addicts taking the medication able to abstain from cocaine for a prescribed period” value [2]?
**A.** Its value is 59%.

**Q.** Which ED50 [3] does the source give for `NC(=O)C12NC(Cc3ccccc31)c1ccccc12` (centres unmarked) [Compound 1, 5-Aminocarbonyl-10,11-dihydro-5H-dibenzo[a,d]cyclohepten-5,10-imine] here?
**A.** The ED50 was 8.9 mg/kg.

**Q.** What about the TD50 ([4]; intraperitoneal, inverted screen test) of the same compound?
**A.** Its TD50 is 50 to 55 mg/kg.

**Q.** What about the selectivity ratio ([4]; motor toxicity TD50 versus maximal electroshock ED50, read-out: therapeutic index (TI)) of the same compound?
**A.** The selectivity ratio was 5.6 to 6.2.

**Q.** What does the source list for `CC12NC(Cc3ccccc31)c1ccccc12` (single isomer, unassigned) [MK-801]?
**A.** affinity for phencyclidine binding sites [5]: high affinity; sedative side effects [6]: essentially free of the usual sedative side effects
